In US8278343B2, “Pyrrolidines” (Pfizer Inc., priority 2008, dated 2012):
pKi: −log10 of the molar value.

Target: T1, recombinant human EP-2 receptor (Homo sapiens, UniProt P43116)
T1 construct: stably transfected with full length cDNA encoding human Prostaglandin E2; expressed in transfected cells
Assay: In vitro antagonist potency against recombinant human prostaglandin E2 (EP-2) receptor in CHO cells (cAMP, Protocol 1)
Format: cell-based
Conditions: CHO cells expressing recombinant human EP-2 receptor, stimulated with 5 nM PGE2; cAMP readout; Ki by Cheng-Prusoff equation; read-out: EP2 Ki
Method: 1.0 Measurement of In Vitro Antagonist Potency (IC50) of Compounds Against Recombinant Human Prostaglandin E2 Receptor in CHO Cells
The prostaglandin E2 (EP-2) receptor is Gs coupled and agonism of the receptor by PGE2 results in activation of intracellular adenylate cyclase enzymes that synthesise the second messenger signalling molecule, adenosine 3′,5′-cyclic monophosphate (cAMP). CHO cells expressing the recombinant human EP-2 receptor are stimulated with PGE2 (5 nM) equivalent to approximately […] values to give the maximal cAMP signal. Decreases in cAMP levels following treatment of stimulated recombinant EP-2 cells with potential antagonist compounds were measured and potency (IC50) calculated as follows.
A Chinese hamster ovary (CHO) cell line stably transfected with full length cDNA encoding human Prostaglandin E2 was established using standard molecular biology methods. Test compounds were dissolved in dimethyl sulphoxide (DMSO) at 4 mM. 11 point half log unit increment dilution series of test compound were prepared in DMSO then diluted 1 in 40 in a buffer comprised of phosphate buffered saline (PBS) and 0.05% pluronic F-127 surfactant. Freshly cultured cells at 80-90% confluence were harvested and re-suspended in 90% growth media/10% DMSO. The cells were frozen using a planar freezer and stored in frozen aliquots in cryovials in liquid nitrogen until the day of the experiment. A vial of cells was defrosted in a 37° C. water bath for 2 min, then transferred to 10 ml of Dulbecco's Modified Eagle's Medium (DMEM). The cells were then centrifuged for 5 min at 1000 g and the pellet re-suspended at 1,000,000 cells/ml in DMEM. 5,000 cells (5 ul) were added to 5 ul of the compound dilution series in a 384 well assay plate and pre-incubated for 30 min at 37° C. 5 ul of agonist (15 nM PGE2 in PBS to give 5 nM FAC) was added and plates further incubated for 90 min at 37° C. The relative cAMP concentration in each well was then measured using a β-galactosidase enzyme fragment complementation method purchased in kit form as the Discoverx cAMP II kit from GE Healthcare, UK. […] Sigmoidal curves were fitted to plots of log10 inhibitor concentration vs percent effect. IC50 estimates were determined as the concentration of test compound giving an effect half way between the bottom and top asymptotes of the sigmoidal dose response curve. Each experiment included an IC50 determination for the literature compound as a standard to track assay consistency and allow fair comparison between values obtained in different experiments. The EC50 of PGE2 is used in combination with the ligand concentration in the assay to determine Ki values for antagonist dose responses using the Cheng-Prusoff equation. Consequently an agonist dose response curve is carried out for each experiment using the same incubation as the antagonist plate.

T1 sequence (P43116 whole entry): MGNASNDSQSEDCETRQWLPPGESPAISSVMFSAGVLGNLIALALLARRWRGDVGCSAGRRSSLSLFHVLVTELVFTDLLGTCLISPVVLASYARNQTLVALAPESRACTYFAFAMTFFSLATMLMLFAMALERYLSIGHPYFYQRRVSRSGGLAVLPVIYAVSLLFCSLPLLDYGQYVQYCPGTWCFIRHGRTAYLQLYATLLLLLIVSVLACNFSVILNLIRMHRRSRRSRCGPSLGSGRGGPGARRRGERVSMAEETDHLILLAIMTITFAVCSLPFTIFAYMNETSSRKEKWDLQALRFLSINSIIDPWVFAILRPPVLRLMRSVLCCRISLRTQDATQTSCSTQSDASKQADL

Compound | pKi
COc1ccccc1C(=O)N1CCC(COc2ccc(-c3ccc(C#N)cc3)nc2)(C(=O)O)C1 (single isomer, unassigned) [Example 62] | 6.06
COc1ccccc1C(=O)N1CCC(COc2ccc(-c3ncc(F)cn3)cc2)(C(=O)O)C1 (single isomer, unassigned) [Example 63] | 6.76
COc1ccccc1C(=O)N1CCC(COc2ccc(-c3ncc(F)cn3)cc2)(C(=O)O)C1 (single isomer, unassigned) [Example 64] | 6.21
COc1ccccc1C(=O)N1CCC(COc2ccc(-c3ncc(C#N)cn3)cc2)(C(=O)O)C1 (single isomer, unassigned) [Example 65] | 6.76
COc1ccccc1C(=O)N1CCC(COc2ccc(-c3ccc(C#N)cc3)cc2)(C(=O)O)C1 (single isomer, unassigned) [Example 66] | 8.48
COc1ccccc1C(=O)N1CCC(COc2ccc(-c3ccc(C#N)cc3)cc2)(C(=O)O)C1 (single isomer, unassigned) [Example 67] | 7.07
COc1ccccc1C(=O)N1CCC(COc2ccc(-c3ccc(F)cc3)cc2)(C(=O)O)C1 (single isomer, unassigned) [Example 68] | 7.84
COc1ccccc1C(=O)N1CCC(COc2ccc(-c3ccc(F)cc3)cc2)(C(=O)O)C1 (single isomer, unassigned) [Example 69] | 6.51
COc1ccccc1C(=O)N1CCC(COc2ccc(-c3ccc(Cl)cc3)nc2)(C(=O)O)C1 (single isomer, unassigned) [Example 70] | 7.64
COc1ccccc1C(=O)N1CCC(COc2ccc(-c3ccc(Cl)cc3)nc2)(C(=O)O)C1 (single isomer, unassigned) [Example 71] | 7.62
COc1ccccc1C(=O)N1CCC(COc2ccc(-c3ncc(Cl)cn3)cc2)(C(=O)O)C1 (single isomer, unassigned) [Example 72] | 7.59
COc1ccccc1C(=O)N1CCC(COc2ccc(-c3ncc(Cl)cn3)cc2)(C(=O)O)C1 (single isomer, unassigned) [Example 73] | 6.34
COc1ccccc1C(=O)N1CCC(COc2cnc(-c3ccc(Cl)cc3)nc2)(C(=O)O)C1 (single isomer, unassigned) [Example 74] | 7.45
COc1ccccc1C(=O)N1CCC(COc2cnc(-c3ccc(Cl)cc3)nc2)(C(=O)O)C1 (single isomer, unassigned) [Example 75] | 6.30

Now from value to molecule:

pKi | Compound
6.80 | COc1ccccc1C(=O)N1CCC(COc2ccc(-c3ccc(F)cc3)nc2)(C(=O)O)C1 (single isomer, unassigned) [Example 76]
7.67 | O=C(C1CCC1)N1CCC(COc2ccc(-c3ccc(F)cc3)cc2)(C(=O)O)C1 (single isomer, unassigned) [Example 79]
6.46 | O=C(C1CCC1)N1CCC(COc2ccc(-c3ccc(F)cc3)cc2)(C(=O)O)C1 (single isomer, unassigned) [Example 80]
7.26 | O=C(C1CCCC1)N1CCC(COc2ccc(-c3ccc(F)cc3)cc2)(C(=O)O)C1 (single isomer, unassigned) [Example 81]
6.28 | O=C(C1CCCC1)N1CCC(COc2ccc(-c3ccc(F)cc3)cc2)(C(=O)O)C1 (single isomer, unassigned) [Example 82]
6.92 | O=C(C1CC1)N1CCC(COc2ccc(-c3ccc(F)cc3)cc2)(C(=O)O)C1 (single isomer, unassigned) [Example 83]
6.36 | O=C(C1CC1)N1CCC(COc2ccc(-c3ccc(F)cc3)cc2)(C(=O)O)C1 (single isomer, unassigned) [Example 84]
8.27 | Cc1ccc(OC(=O)N2CCC(COc3ccc(-c4ccc(F)cc4)cc3)(C(=O)O)C2)cc1 (single isomer, unassigned) [Example 86]
6.65 | Cc1ccc(OC(=O)N2CCC(COc3ccc(-c4ccc(F)cc4)cc3)(C(=O)O)C2)cc1 (single isomer, unassigned) [Example 87]
7.83 | O=C(Oc1ccc(Cl)cc1)N1CCC(COc2ccc(-c3ccc(F)cc3)cc2)(C(=O)O)C1 (single isomer, unassigned) [Example 88]
